The assay deals with P388 leukemia ip, CD2F1 mice, survival T/C. In words: NCI In Vivo Anticancer Drug Screen. Data for tumor model P388 Leukemia (intraperitoneal) in CD2F1 (CDF1) mice. The note with it: endpoint: median survival time, higher = longer survival. The gist of the method:
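Mice carrying the transplanted tumor received test compound or vehicle. Survival was recorded in each group, and the value is the treated-group measurement divided by that of the vehicle-treated control group.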

Setting [1] is: dose: 12.5 mg/kg/injection, schedule: Q01DX009 (ip), vehicle: saline with Tween-80.
Where [2] appears, read: dose: 25.0 mg/kg/injection, schedule: Q01DX009 (ip), vehicle: saline with Tween-80.
[3] abbreviates: dose: 50.0 mg/kg/injection, schedule: Q01DX009 (ip), vehicle: saline with Tween-80.
Setting [4] is: dose: 100.0 mg/kg/injection, schedule: Q04DX002 (ip), vehicle: saline with Tween-80.
Where [5] appears, read: dose: 200.0 mg/kg/injection, schedule: Q04DX002 (ip), vehicle: saline with Tween-80.
Setting [6] is: dose: 400.0 mg/kg/injection, schedule: Q04DX002 (ip), vehicle: saline with Tween-80.
Setting [7] is: dose: 50.0 mg/kg/injection, schedule: Q01DX005 (ip), vehicle: saline.
[8] abbreviates: dose: 100.0 mg/kg/injection, schedule: Q01DX005 (ip), vehicle: saline.

Each structure is given as a SMILES string. Several values for one entry are separate records, joined by “and”; a condition that tells them apart may be missing. Equal values may be shown once. Toxic doses and inconclusive results are not listed.

Regarding `S=P(N1CC1)(N1CC1)N1CC1`, the T/C runs as follows: (dose: 0.62 mg/kg/injection, schedule: Q01DX005 (ip), vehicle: saline) 100 % of control; (dose: 0.75 mg/kg/injection, schedule: Q01DX005 (ip), vehicle: saline) 118 % of control; (dose: 0.75 mg/kg/injection, schedule: Q01DX009 (ip), vehicle: saline) 106 % of control; (dose: 1.25 mg/kg/injection, schedule: Q01DX005 (ip), vehicle: saline) 115 % of control; (dose: 1.25 mg/kg/injection, schedule: Q04DX003 (ip), vehicle: water) 101 % of control and 110 % of control (2×); (dose: 1.5 mg/kg/injection, schedule: Q01DX005 (ip), vehicle: saline) 114 % of control and 120 % of control. Moreover, the T/C was 124 % of control (dose: 2.0 mg/kg/injection, schedule: Q01DX009 (ip), vehicle: saline); 110 % of control (dose: 2.5 mg/kg/injection, schedule: Q04DX003 (ip), vehicle: water); 163 % of control (dose: 3.0 mg/kg/injection, schedule: Q01DX005 (ip), vehicle: saline); 163 % of control and 174 % of control (dose: 3.0 mg/kg/injection, schedule: Q01DX009 (ip), vehicle: saline); 124 % of control (dose: 3.24 mg/kg/injection, schedule: Q04DX002 (ip), vehicle: saline); 178 % of control (dose: 4.0 mg/kg/injection, schedule: Q01DX009 (ip), vehicle: saline). Also, the T/C is, setting by setting: (dose: 5.0 mg/kg/injection, schedule: Q01DX005 (ip), vehicle: saline) 169 % of control; (dose: 5.0 mg/kg/injection, schedule: Q04DX003 (ip), vehicle: water) 163 % of control; (dose: 6.0 mg/kg/injection, schedule: Q01DX005 (ip), vehicle: saline) 181 % of control and 207 % of control and 90 % of control; (dose: 8.0 mg/kg/injection, schedule: Q01DX009 (ip), vehicle: saline) 101 % of control; (dose: 9.0 mg/kg/injection, schedule: Q04DX002 (ip), vehicle: saline) 166 % of control; (dose: 10.0 mg/kg/injection, schedule: Q04DX003 (ip), vehicle: water) 159 % of control and 200 % of control and 229 % of control. Further, the T/C (dose: 12.0 mg/kg/injection, schedule: Q01DX005 (ip), vehicle: saline) is 88 % of control; the T/C (dose: 15.0 mg/kg/injection, schedule: Q04DX002 (ip), vehicle: saline) was 197 % of control; the T/C (dose: 20.0 mg/kg/injection, schedule: Q04DX003 (ip), vehicle: water) is 110 % of control and 90 % of control and 92 % of control; the T/C (dose: 25.0 mg/kg/injection, schedule: Q04DX002 (ip), vehicle: saline) was 240 % of control.

With `CC1CN1C(=O)c1cc(C(=O)N2CC2C)cc(C(=O)N2CC2C)c1` (stereo not given), under “dose: 6.25 mg/kg/injection, schedule: Q01DX009 (ip), vehicle: saline with Tween-80”, the T/C is 113 % of control.

With `O=C(Nc1ccc([N+](=O)[O-])cc1)N1CCOCC1`, the T/C by setting is: under setting [1], 97 % of control; under setting [2], 89 % of control; under setting [3], 86 % of control and 92 % of control; (dose: 200.0 mg/kg/injection, schedule: Q01DX009 (ip), vehicle: saline with Tween-80) 88 % of control.

`Cc1ccc(S(=O)(=O)Nc2ccccc2N(CCNCCOS(=O)(=O)c2ccc(C)cc2)S(=O)(=O)c2ccc(C)cc2)cc1`: the T/C is 96 % of control under setting [4], 98 % of control under setting [5] and 91 % of control under setting [6].

On to `O=S(=O)(O)O.[Fe]`, for which the T/C reads like this: under setting [1], 95 % of control; under setting [2], 95 % of control; under setting [3], 86 % of control.

For `Clc1ccc(C(Nc2nncs2)Nc2nncs2)cc1`, the T/C is, setting by setting: (dose: 60.0 mg/kg/injection, schedule: Q01DX005 (ip), vehicle: saline with Tween-80) 94 % of control; (dose: 120.0 mg/kg/injection, schedule: Q01DX005 (ip), vehicle: saline with Tween-80) 93 % of control; (dose: 240.0 mg/kg/injection, schedule: Q01DX005 (ip), vehicle: saline with Tween-80) 98 % of control.

With `CC(C(=O)O)N1C(=O)c2ccccc2C1=O` (stereo not given), the T/C runs as follows: (dose: 4.0 mg/kg/injection, schedule: Q01DX009 (ip), vehicle: water) 105 % of control; (dose: 8.0 mg/kg/injection, schedule: Q01DX009 (ip), vehicle: water) 100 % of control; (dose: 16.0 mg/kg/injection, schedule: Q01DX009 (ip), vehicle: water) 103 % of control; (dose: 32.0 mg/kg/injection, schedule: Q01DX009 (ip), vehicle: water) 100 % of control; (dose: 64.0 mg/kg/injection, schedule: Q01DX009 (ip), vehicle: water) 99 % of control.

For the molecule `CSCC(=O)O`, the T/C (dose: 50.0 mg/kg/injection, schedule: Q01DX009 (ip), vehicle: saline) was 106 % of control; the T/C (dose: 100.0 mg/kg/injection, schedule: Q01DX009 (ip), vehicle: saline) was 106 % of control; the T/C (dose: 200.0 mg/kg/injection, schedule: Q01DX009 (ip), vehicle: saline) is 97 % of control.

On to `NCCSSc1ccccc1C(=O)O`, for which the T/C is 102 % of control (dose: 50.0 mg/kg/injection, schedule: Q01DX005 (ip), vehicle: Klucel (hydroxypropylcellulose) (HPC)); 105 % of control (dose: 100.0 mg/kg/injection, schedule: Q01DX005 (ip), vehicle: Klucel (hydroxypropylcellulose) (HPC)); 112 % of control (dose: 200.0 mg/kg/injection, schedule: Q01DX005 (ip), vehicle: Klucel (hydroxypropylcellulose) (HPC)).

In the case of `O=c1cc(-c2ccc(Cl)cc2)c(-c2ccc(Cl)cc2)nn1CCO`, the T/C is 95 % of control under setting [4], 95 % of control under setting [5] and 89 % of control under setting [6].

Consider `ClCCN(CCCl)CCNc1ccnc2cc(Cl)ccc12`, for which the T/C was 104 % of control (dose: 0.1 mg/kg/injection, schedule: Q01DX009 (ip), vehicle: saline); 90 % of control (dose: 0.2 mg/kg/injection, schedule: Q01DX009 (ip), vehicle: saline); 114 % of control (dose: 0.38 mg/kg/injection, schedule: Q01DX009 (ip), vehicle: saline); 90 % of control (dose: 0.5 mg/kg/injection, schedule: Q01DX009 (ip), vehicle: saline sonified); 114 % of control (dose: 0.58 mg/kg/injection, schedule: Q01DX009 (ip), vehicle: saline); 118 % of control (dose: 0.88 mg/kg/injection, schedule: Q04DX003 (ip), vehicle: saline). In addition, the T/C is 118 % of control (dose: 1.0 mg/kg/injection, schedule: Q01DX009 (ip), vehicle: saline sonified); 118 % of control (dose: 2.0 mg/kg/injection, schedule: Q04DX003 (ip), vehicle: saline); 166 % of control (dose: 4.4 mg/kg/injection, schedule: Q01DX009 (ip), vehicle: saline).

As for `c1ccc(-n2cncn2)cc1`, the T/C is 95 % of control (dose: 60.0 mg/kg/injection, schedule: Q01DX005 (ip), vehicle: saline); 100 % of control (dose: 120.0 mg/kg/injection, schedule: Q01DX005 (ip), vehicle: saline); 101 % of control (dose: 240.0 mg/kg/injection, schedule: Q01DX005 (ip), vehicle: saline).

`CCN(CC)CCCC(C)Nc1nncc2cc(Cl)ccc12` (stereo not given): the T/C runs as follows: under setting [7], 95 % of control; under setting [8], 97 % of control.

For `COC(=O)C1(O)OCC(O)C(O)C1O` (stereo not given), the T/C reads like this: under setting [7], 100 % of control; under setting [8], 105 % of control; (dose: 200.0 mg/kg/injection, schedule: Q01DX005 (ip), vehicle: saline) 100 % of control.

`COc1ccc2c3c([nH]c2c1[N+](=O)[O-])C(C)N(S(=O)(=O)c1ccccc1)CC3` (stereo not given): the T/C (dose: 8.5 mg/kg/injection, schedule: Q01DX005 (ip), vehicle: Klucel (hydroxypropylcellulose) (HPC)) was 95 % of control; the T/C (dose: 17.0 mg/kg/injection, schedule: Q01DX005 (ip), vehicle: Klucel (hydroxypropylcellulose) (HPC)) is 97 % of control; the T/C (dose: 34.0 mg/kg/injection, schedule: Q01DX005 (ip), vehicle: Klucel (hydroxypropylcellulose) (HPC)) is 104 % of control; the T/C (dose: 68.0 mg/kg/injection, schedule: Q01DX005 (ip), vehicle: Klucel (hydroxypropylcellulose) (HPC)) is 95 % of control; the T/C (dose: 136.0 mg/kg/injection, schedule: Q01DX005 (ip), vehicle: Klucel (hydroxypropylcellulose) (HPC)) is 89 % of control.

Regarding `CCC(=O)Nc1cc(C(F)(F)F)cc2[nH]c(C)nc12`, the T/C reads like this: (dose: 50.0 mg/kg/injection, schedule: Q01DX005 (ip), vehicle: saline with Tween-80) 97 % of control; (dose: 100.0 mg/kg/injection, schedule: Q01DX005 (ip), vehicle: saline with Tween-80) 99 % of control; (dose: 200.0 mg/kg/injection, schedule: Q01DX005 (ip), vehicle: saline with Tween-80) 100 % of control.

For the origin of these results see PubChem BioAssay AID330 (DTP/NCI, 2004).
